The target in assay [1] is T1, PIP4K2A (full length protein, SignalChem) (Homo sapiens, UniProt P48426).
T1 construct: 4 nM PIP4K2A (full length protein, SignalChem); purchased SignalChem
T1 sequence (P48426 1-406): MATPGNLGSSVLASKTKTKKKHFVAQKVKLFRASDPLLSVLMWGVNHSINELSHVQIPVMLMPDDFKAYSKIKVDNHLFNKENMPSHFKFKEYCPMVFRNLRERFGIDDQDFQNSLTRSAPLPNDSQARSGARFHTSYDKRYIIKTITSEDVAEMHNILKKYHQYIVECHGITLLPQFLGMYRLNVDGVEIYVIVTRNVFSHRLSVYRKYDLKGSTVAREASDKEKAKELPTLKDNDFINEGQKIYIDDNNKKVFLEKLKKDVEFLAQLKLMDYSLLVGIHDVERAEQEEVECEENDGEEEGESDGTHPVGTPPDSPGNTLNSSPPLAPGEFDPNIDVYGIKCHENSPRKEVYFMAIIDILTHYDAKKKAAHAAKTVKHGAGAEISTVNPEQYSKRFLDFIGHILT
Briefly: Kinase Assay PIP4K2 A (Sprint); ADP-Glo biochemical assay. Particulars: Table 2; compounds listed under IC50 range headings. How it is done: Dilution series of the compounds were prepared in DMSO at 100 times the final assay concentration (n1=n0/3 in 10 points). The compounds were further diluted to three times the assay concentration in assay buffer (20 mM MOPS pH 7.2, 25 mM magnesium chloride, 0.005% Tween 20). 6 μL of the diluted compounds were added to a 384 well assay plate followed by 9 μL of a mix consisting of 4 nM PIP4K2A (full length protein, SignalChem) and 100 μM PI(5)P diC8 (Tebu-Bio). Enzyme and compounds were pre-incubated at room temperature for 15 min.
Then 3 μL of a solution containing 60 μM ATP (Promega) in assay buffer was added to the wells containing compound and enzyme and mixing was performed by pipetting several times. The reaction was incubated at room temperature for 1 h. Then 18 μL of ADP-Glo™ Reagent (Promega) was added to stop the kinase reaction and deplete the unconsumed ATP, mixing was performed by pipetting several times. The plate was incubated at room temperature for 40 min before addition of 36 μL of Kinase Detection Reagent (Promega) to convert ADP to ATP and introduce luciferase and luciferin to detect ATP. The reaction was incubated at room temperature for 40 min before the luminescence was measured in a in a Victor 3V 1420 multilabel counter (Perkin Elmer).
Percent inhibition of the compounds as compared to dimethyl sulfoxide treated control samples was calculated. Compound concentration versus percent inhibition were fitted to generate IC50 values.
For orientation: ADP-Glo turns the ADP formed in a reaction into a luminescent signal.

The next assay deals with T2, GST tagged PIP4KtypeIIB (Homo sapiens, UniProt P78356).
T2 construct: made in house; host or cells: E. coli
T2 sequence (P78356 1-416): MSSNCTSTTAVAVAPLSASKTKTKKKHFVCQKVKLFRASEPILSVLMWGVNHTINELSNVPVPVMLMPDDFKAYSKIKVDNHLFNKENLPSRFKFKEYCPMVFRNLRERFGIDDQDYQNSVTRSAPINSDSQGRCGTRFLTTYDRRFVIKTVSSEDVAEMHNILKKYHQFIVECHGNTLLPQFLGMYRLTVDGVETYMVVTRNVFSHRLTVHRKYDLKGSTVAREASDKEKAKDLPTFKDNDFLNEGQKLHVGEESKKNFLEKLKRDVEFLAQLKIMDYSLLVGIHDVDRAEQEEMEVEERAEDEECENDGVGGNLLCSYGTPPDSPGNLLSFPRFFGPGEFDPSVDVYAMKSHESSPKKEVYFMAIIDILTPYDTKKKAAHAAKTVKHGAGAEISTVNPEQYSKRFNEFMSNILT
In words: Trans-FI P kinase assay PIP4K2B (PIP4KtypeIIB inhibition assay). It counts as biochemical. The following applies: Table 4; compounds listed under IC50 range headings; 100 uM GTP, 5 nM PIP4KIIB; read-out: Trans-FI P kinase assays: PIP4K2B IC50. From the text: GST tagged PIP4KtypeIIA and B enzymes were overexpressed in E. Coli and purified to >80% homogeneity. Phosphatidyl inositol-5-phosphate (PI5P, Cat. #850152, Avanti Polar Lipids Inc.) was used as the lipid substrate and phosphatidyl ethanolamine (DOPE 18:1, Cat. #850725, Avanti Polar Lipids Inc.) was used as the carrier lipid for assays. Ultrapure ATP and GTP was purchased from Bellbrooke Labs. ADP Glo reagents were obtained from Promega. Transcreener FI reagent was obtained from Bellbrooke labs.
1. HEPES buffer mix: 200 mM HEPES pH 7.4, 50 mM MgCl2, 0.05% v/v triton×100
2. HNE buffer: 20 mM HEPES, pH 7.4, 100 mM NaCl, 0.5 mM EGTA
3. H:E buffer: 30 mM HEPES, pH 7.4, 1 mM EGTA
GST-tagged PIP4KtypeIIB (3.4 uL, 2.77 mg/mL) was diluted to 5 mL using HNE buffer to yield 5× enzyme stock (25 nM)
Lipid Preparation: In a 10 mL pyrex glass vial, lug of PI5P and lug of DOPE were suspended in 2.5 mL of HEPES buffer mix and 2.5 mL of H:E buffer. The contents were mixed and sonicated for 3 min to yield a translucent lipid stock.
Compound Preparation: Compounds were stored as 5 mM stocks in neat DMSO as room temperature in glass vials. 5 mM stocks were diluted to 2 mM and then serially diluted (3×) in neat DMSO in 96 well polypropylene plates. From the serially diluted stocks, 3 uL was delivered into 250 uL of 25% DMSO (in water) to generate 5× compound stocks. Typically, the highest compound conc. was 24 uM.
The assay volume was kept at 25 uL. To each well of the reaction plate, 10 uL of lipid stock (1:1 ratio PI5P:DOPE) was delivered. This was followed by the addition of 5 uL of compound in 25% DMSO. Then, to each well, 5 uL of 25 nM (5×) typeIIB enzyme was delivered. The contents were mixed well and incubated for 1 h at 27 C. After 1 h, reaction was initiated by adding 5 uL of 500 uM GTP and the contents were mixed well with a multi-channel pipetteman. The final concentration of the reagents are as follows: 50 mM HEPES, pH 7.3, 10 mM MgCl2, 20 mM NaCl, 0.01% v/v triton-X100, 5% DMSO, 100 uM GTP, 80 uM (2 ug) PI5P, 2 ug DOPE, and 5 nM PIP4KIIB Typically, the highest conc. of compounds was 4.8 uM and the lowest conc. was 0.
After 2 h, the reaction was quenched by adding 25 uL of transcreener FI reagent. The contents were incubated at RT for 1 h and the Fluorescence (Ex: 584 Em: 623) was read using Molecular Devices Paradigm plate reader. […] The blanks were averaged and subtracted from all other wells. Using a calibration curve, RFU was converted to uM GDP (product). IC50 was calculated by plotting the residual activity (expressed as % No inhibitor control) vs. log [Inh. conc.] Table 2 represents PI5P4K activity of compounds (Example No.) of the invention arranged in accordance with the inhibition of PIP4K2 A kinase assay.

Where only a bound is given, the exact number is not on record here.

IC50 data for 15 compounds are collected here from US11919902B2, “Aryl-bipyridine amine derivatives as phosphatidylinositol phosphate kinase inhibitors” (HiberCell, Inc., priority 2017, dated 2024).

Usually IC50 stands for the concentration at which inhibition is half-maximal. For the compound `Cc1cc2nc(CNC(=O)c3cc4c(-c5cncc(-c6ccc(N7CCCC7=O)cc6)c5)ccnc4[nH]3)[nH]c2cc1C` [Example 315, N-((5,6-dimethyl-1H-benzo[d]imidazol-2-yl)methyl)-4-(5-(4-(2-oxopyrrolidin-1-yl)phenyl)pyridin-3-yl)-1H-pyrrolo[2,3-b]pyridine-2-carboxamide], the IC50 was in the range of 1000 to 2500 nM in assay [1] and 100 to 1000 nM on GST tagged PIP4KtypeIIB.

Take `Cc1c[nH]c2nccc(-c3cc(-c4ccc(N5CCCC5=O)cc4)cnc3N)c12` [Example 316, 1-(4-(6-amino-5-(3-methyl-1H-pyrrolo[2,3-b]pyridin-4-yl)pyridin-3-yl)phenyl)pyrrolidin-2-one]: the figures for the IC50 (in assay [1]; at GST tagged PIP4KtypeIIB) were 1000 to 2500 nM and 10 to 100 nM, respectively.

In the case of `Cc1cccc2[nH]c(CNC(=O)c3cc4c(-c5cncc(-c6ccc(N7CCCC7=O)cc6)c5)ccnc4[nH]3)nc12` [Example 317, N-((4-methyl-1H-benzo[d]imidazol-2-yl)methyl)-4-(5-(4-(2-oxopyrrolidin-1-yl)phenyl)pyridin-3-yl)-1H-pyrrolo[2,3-b]pyridine-2-carboxamide], the IC50 in assay [1] was < 5000 nM; on GST tagged PIP4KtypeIIB it was 10 to 100 nM.

Consider `Cc1[nH]nc2nccc(-c3cncc(-c4ccc(N5CCCC5=O)cc4)c3)c12` [Example 318, 1-(4-(5-(3-methyl-2H-pyrazolo[3,4-b]pyridin-4-yl)pyridin-3-yl)phenyl)pyrrolidin-2-one], for which the 50% inhibitory concentration (IC50) was in the range of 1000 to 2500 nM in assay [1] and 100 to 1000 nM on GST tagged PIP4KtypeIIB.

In the case of `O=C(NCc1nc2ccccc2s1)c1cc2c(-c3cncc(-c4ccc(N5CCCC5=O)cc4)c3)ccnc2[nH]1` [Example 319, N-(benzo[d]thiazol-2-ylmethyl)-4-(5-(4-(2-oxopyrrolidin-1-yl)phenyl)pyridin-3-yl)-1H-pyrrolo[2,3-b]pyridine-2-carboxamide], the IC50 in assay [1] lay in the range of 100 to 1000 nM; on GST tagged PIP4KtypeIIB it was 10 to 100 nM.

Regarding `Cc1ccc2nc(CNC(=O)c3cc4c(-c5cncc(-c6ccc(N7CCCC7=O)cc6)c5)ccnc4[nH]3)[nH]c2c1` [Example 320, N-((6-methyl-1H-benzo[d]imidazol-2-yl)methyl)-4-(5-(4-(2-oxopyrrolidin-1-yl)phenyl)pyridin-3-yl)-1H-pyrrolo[2,3-b]pyridine-2-carboxamide], the figures for the IC50 (in assay [1]; at GST tagged PIP4KtypeIIB) were 1000 to 2500 nM and 100 to 1000 nM, respectively.

For the compound `Cn1c(CNC(=O)c2cc3c(-c4cncc(-c5ccc(N6CCCC6=O)cc5)c4)ccnc3[nH]2)nc2ccccc21` [Example 321, N-((1-methyl-1H-benzo[d]imidazol-2-yl)methyl)-4-(5-(4-(2-oxopyrrolidin-1-yl)phenyl)pyridin-3-yl)-1H-pyrrolo[2,3-b]pyridine-2-carboxamide], the IC50 in assay [1] is < 5000 nM; on GST tagged PIP4KtypeIIB, 100 to 1000 nM.

As to `O=C(NCc1nc2ccccc2[nH]1)c1cc2c(-c3cncc(-c4ccc(N5CCCC5=O)cc4)c3)ccnc2[nH]1` [Example 322, N-((1H-benzo[d]imidazol-2-yl)methyl)-4-(5-(4-(2-oxopyrrolidin-1-yl)phenyl)pyridin-3-yl)-1H-pyrrolo[2,3-b]pyridine-2-carboxamide], the IC50 was in the range of 1000 to 2500 nM in assay [1] and 10 to 100 nM at GST tagged PIP4KtypeIIB.

Take `Cc1c[nH]c2nccc(-c3cncc(-c4ccc(N5CCCC5=O)cc4)c3)c12` [Example 323, 1-(4-(5-(3-methyl-1H-pyrrolo[2,3-b]pyridin-4-yl)pyridin-3-yl)phenyl)pyrrolidin-2-one]: the IC50 is 1000 to 2500 nM in assay [1] and 100 to 1000 nM on GST tagged PIP4KtypeIIB.

`CCN(C)C(=O)c1ccc(-c2cncc(-c3ccnc4c3cc3n4CCN(C)C3=O)c2)cc1` [Example 324, N-ethyl-N-methyl-4-(5-(7-methyl-6-oxo-6,7,8,9-tetrahydropyrido[3′,2′:4,5]pyrrolo[1,2-a]pyrazin-4-yl)pyridin-3-yl)benzamide]: the 50% inhibitory concentration (IC50) is 100 to 1000 nM in assay [1] and 10 to 100 nM at GST tagged PIP4KtypeIIB.

In the case of `Cc1ccc2c(c1)N(C(=O)c1cc3c(-c4cncc(-c5ccc(N6CCCC6=O)cc5)c4)ccnc3[nH]1)CCO2` [Example 325, 1-(4-(5-(2-(6-methyl-3,4-dihydro-2H-benzo[b][1,4]oxazine-4-carbonyl)-1H-pyrrolo[2,3-b]pyridin-4-yl)pyridin-3-yl)phenyl)pyrrolidin-2-one], the 50% inhibitory concentration (IC50) is 5 to 100 nM in assay [1] and 100 to 1000 nM at GST tagged PIP4KtypeIIB.

With `CN1CCn2c(cc3c(-c4cncc(-c5ccc(N6CC(C)(C)CCC6=O)cc5)c4)ccnc32)C1=O` [Example 326, 4-(5-(4-(5,5-dimethyl-2-oxopiperidin-1-yl)phenyl)pyridin-3-yl)-7-methyl-8,9-dihydropyrido[3′,2′:4,5]pyrrolo[1,2-a]pyrazin-6(7H)-one], the IC50 in assay [1] is 1000 to 2500 nM; on GST tagged PIP4KtypeIIB, 100 to 1000 nM.

On to `CN1CCn2c(cc3c(-c4cncc(-c5ccc(C(=O)N6CCOCC6)cc5)c4)ccnc32)C1=O` [Example 327, 7-methyl-4-(5-(4-(morpholine-4-carbonyl)phenyl)pyridin-3-yl)-8,9-dihydropyrido[3′,2′:4,5]pyrrolo[1,2-a]pyrazin-6(7H)-one], for which the half-maximal inhibitory concentration (IC50) in assay [1] fell in the range of 2500 to 5000 nM; at GST tagged PIP4KtypeIIB it was 100 to 1000 nM.

On to `O=C(Nc1cccnc1)c1cc2c(-c3cncc(-c4ccc(N5CCCC5=O)cc4)c3)ccnc2[nH]1` [Example 328, 4-(5-(4-(2-oxopyrrolidin-1-yl)phenyl)pyridin-3-yl)-N-(pyridin-3-yl)-1H-pyrrolo[2,3-b]pyridine-2-carboxamide], for which the half-inhibitory concentration (IC50) is 2500 to 5000 nM in assay [1] and 10 to 100 nM at GST tagged PIP4KtypeIIB.

On to `O=C(Nc1ccccc1)c1cc2c(-c3cncc(-c4ccc(N5CCCC5=O)cc4)c3)ccnc2[nH]1` [Example 329, 4-(5-(4-(2-oxopyrrolidin-1-yl)phenyl)pyridin-3-yl)-N-phenyl-1H-pyrrolo[2,3-b]pyridine-2-carboxamide], for which the IC50 in assay [1] fell in the range of 2500 to 5000 nM; on GST tagged PIP4KtypeIIB it was 10 to 100 nM.
